Test results: US6339042B1, “Herbicidal N-cyclohexadienyl heteroaryloxyacetamides” (American Cyanamid Co., priority 1999, dated 2002)

Tests used:
Conditions in all cases: three weeks after treatment
Amaranthus tuberculatus [1] = experiment: Pre-emergence herbicidal evaluation, AMATA; format: in vivo
Source text: (§1) The treated pots are then placed on greenhouse benches, watered and cared for in accordance with conventional greenhouse procedures.

Galium aparine [2] = experiment: Pre-emergence herbicidal evaluation, GALAP; format: in vivo
Source text: as §1

Alopecurus myosuroides [3] = experiment: Pre-emergence herbicidal evaluation, ALOMY; format: in vivo
Source text: as §1

Apera spica venti [4] = experiment: Pre-emergence herbicidal evaluation, APESV; format: in vivo
Source text: as §1

Echinochloa crus-galli [5] = experiment: Pre-emergence herbicidal evaluation, ECHCG; format: in vivo
Source text: as §1

Setaria viridis [6] = experiment: Pre-emergence herbicidal evaluation, SETVI; format: in vivo
Source text: as §1

Lolium perenne [7] = experiment: Pre-emergence herbicidal evaluation, LOLPE; format: in vivo
Source text: as §1

Triticum aestivum [8] = experiment: Pre-emergence herbicidal evaluation, TRZAW; format: in vivo
Source text: as §1

Hordeum vulgare [9] = experiment: Pre-emergence herbicidal evaluation, HORVW; format: in vivo
Source text: as §1

Zea mays [10] = experiment: Pre-emergence herbicidal evaluation, ZEAMX; format: in vivo
Source text: as §1

Glycine max [11] = experiment: Pre-emergence herbicidal evaluation, GLXMA; format: in vivo
Source text: as §1

Oryza sativum [12] = experiment: Pre-emergence herbicidal evaluation, ORYSA; format: in vivo
Source text: as §1

Amaranthus tuberculatus [13] = experiment: Post-emergence herbicidal evaluation, AMATA; format: in vivo
Galium aparine [14] = experiment: Post-emergence herbicidal evaluation, GALAP
Alopecurus myosuroides [15] = experiment: Post-emergence herbicidal evaluation, ALOMY
Method: The compounds of the invention are tested for pre- and post-emergence herbicidal activity.
Each pot is examined three weeks after treatment and phytotoxicity is assessed according to the rating system set forth below.
These acetone solutions are diluted with water and the resulting formulations applied at dosage levels equivalent of about 0.4 to 0.1 kg per hectare of test compound per pot. After spraying the plants are placed on greenhouse benches and are cared for in the usual manner, commensurate with conventional greenhouse practices.

Apera spica venti [16] = experiment: Post-emergence herbicidal evaluation, APESV
Echinochloa crus-galli [17] = experiment: Post-emergence herbicidal evaluation, ECHCG
Setaria viridis [18] = experiment: Post-emergence herbicidal evaluation, SETVI
Lolium perenne [19] = experiment: Post-emergence herbicidal evaluation, LOLPE
Triticum aestivum [20] = experiment: Post-emergence herbicidal evaluation, TRZAW
Hordeum vulgare [21] = experiment: Post-emergence herbicidal evaluation, HORVW
Zea mays [22] = experiment: Post-emergence herbicidal evaluation, ZEAMX
Glycine max [23] = experiment: Post-emergence herbicidal evaluation, GLXMA
Oryza sativum [24] = experiment: Post-emergence herbicidal evaluation, ORYSA

Structure (SMILES): CC1=CC(N(C(=O)COc2nnc(C(F)(F)F)s2)C(C)C)=CC(C)(C)C1 [Example 4]
- phytotoxicity rating AMATA (Amaranthus tuberculatus [1]; 0.100 kg/ha): 6 (6 - Herbicidal effect)
- phytotoxicity rating AMATA (Amaranthus tuberculatus [1]; 0.200 kg/ha): 6 (6 - Herbicidal effect)
- phytotoxicity rating AMATA (Amaranthus tuberculatus [1]; 0.400 kg/ha): 8 (8 - Approaching complete kill)
- phytotoxicity rating AMATA (Amaranthus tuberculatus [1]; 0.800 kg/ha): 8 (8 - Approaching complete kill)
- phytotoxicity rating GALAP (Galium aparine [2]; 0.100 kg/ha): 0 (0 - No effect)
- phytotoxicity rating GALAP (Galium aparine [2]; 0.200 kg/ha): 0 (0 - No effect)
- phytotoxicity rating GALAP (Galium aparine [2]; 0.400 kg/ha): 2 (2 - Slight effect)
- phytotoxicity rating GALAP (Galium aparine [2]; 0.800 kg/ha): 3 (3 - Moderate effect)
- phytotoxicity rating ALOMY (Alopecurus myosuroides [3]; 0.100 kg/ha): 7 (7 - Good herbicidal effect)
- phytotoxicity rating ALOMY (Alopecurus myosuroides [3]; 0.200 kg/ha): 7 (7 - Good herbicidal effect)
- phytotoxicity rating ALOMY (Alopecurus myosuroides [3]; 0.400 kg/ha): 7 (7 - Good herbicidal effect)
- phytotoxicity rating ALOMY (Alopecurus myosuroides [3]; 0.800 kg/ha): 9 (9 - Complete kill)
- phytotoxicity rating APESV (Apera spica venti [4]; 0.100 kg/ha): 9 (9 - Complete kill)
- phytotoxicity rating APESV (Apera spica venti [4]; 0.200 kg/ha): 9 (9 - Complete kill)
- phytotoxicity rating APESV (Apera spica venti [4]; 0.400 kg/ha): 9 (9 - Complete kill)
- phytotoxicity rating APESV (Apera spica venti [4]; 0.800 kg/ha): 9 (9 - Complete kill)
- phytotoxicity rating ECHCG (Echinochloa crus-galli [5]; 0.100 kg/ha): 6 (6 - Herbicidal effect)
- phytotoxicity rating ECHCG (Echinochloa crus-galli [5]; 0.200 kg/ha): 9 (9 - Complete kill)
- phytotoxicity rating ECHCG (Echinochloa crus-galli [5]; 0.400 kg/ha): 9 (9 - Complete kill)
- phytotoxicity rating ECHCG (Echinochloa crus-galli [5]; 0.800 kg/ha): 9 (9 - Complete kill)
- phytotoxicity rating SETVI (Setaria viridis [6]; 0.100 kg/ha): 6 (6 - Herbicidal effect)
- phytotoxicity rating SETVI (Setaria viridis [6]; 0.200 kg/ha): 6 (6 - Herbicidal effect)
- phytotoxicity rating SETVI (Setaria viridis [6]; 0.400 kg/ha): 6 (6 - Herbicidal effect)
- phytotoxicity rating SETVI (Setaria viridis [6]; 0.800 kg/ha): 9 (9 - Complete kill)
- phytotoxicity rating LOLPE (Lolium perenne [7]; 0.100 kg/ha): 8 (8 - Approaching complete kill)
- phytotoxicity rating LOLPE (Lolium perenne [7]; 0.200 kg/ha): 9 (9 - Complete kill)
- phytotoxicity rating LOLPE (Lolium perenne [7]; 0.400 kg/ha): 9 (9 - Complete kill)
- phytotoxicity rating LOLPE (Lolium perenne [7]; 0.800 kg/ha): 9 (9 - Complete kill)
- phytotoxicity rating TRZAW (Triticum aestivum [8]; 0.100 kg/ha): 0 (0 - No effect)
- phytotoxicity rating TRZAW (Triticum aestivum [8]; 0.200 kg/ha): 0 (0 - No effect)
- phytotoxicity rating TRZAW (Triticum aestivum [8]; 0.400 kg/ha): 1 (1 - Trace effect)
- phytotoxicity rating TRZAW (Triticum aestivum [8]; 0.800 kg/ha): 4 (4 - Injury)
- phytotoxicity rating HORVW (Hordeum vulgare [9]; 0.100 kg/ha): 0 (0 - No effect)
- phytotoxicity rating HORVW (Hordeum vulgare [9]; 0.200 kg/ha): 0 (0 - No effect)
- phytotoxicity rating HORVW (Hordeum vulgare [9]; 0.400 kg/ha): 1 (1 - Trace effect)
- phytotoxicity rating HORVW (Hordeum vulgare [9]; 0.800 kg/ha): 4 (4 - Injury)
- phytotoxicity rating ZEAMX (Zea mays [10]; 0.100 kg/ha): 0 (0 - No effect)
- phytotoxicity rating ZEAMX (Zea mays [10]; 0.200 kg/ha): 1 (1 - Trace effect)
- phytotoxicity rating ZEAMX (Zea mays [10]; 0.400 kg/ha): 1 (1 - Trace effect)
- phytotoxicity rating ZEAMX (Zea mays [10]; 0.800 kg/ha): 4 (4 - Injury)
- phytotoxicity rating GLXMA (Glycine max [11]; 0.100 kg/ha): 0 (0 - No effect)
- phytotoxicity rating GLXMA (Glycine max [11]; 0.200 kg/ha): 0 (0 - No effect)
- phytotoxicity rating GLXMA (Glycine max [11]; 0.400 kg/ha): 0 (0 - No effect)
- phytotoxicity rating GLXMA (Glycine max [11]; 0.800 kg/ha): 1 (1 - Trace effect)
- phytotoxicity rating ORYSA (Oryza sativum [12]; 0.100 kg/ha): 3 (3 - Moderate effect)
- phytotoxicity rating ORYSA (Oryza sativum [12]; 0.200 kg/ha): 4 (4 - Injury)
- phytotoxicity rating ORYSA (Oryza sativum [12]; 0.400 kg/ha): 5 (5 - Definite injury)
- phytotoxicity rating ORYSA (Oryza sativum [12]; 0.800 kg/ha): 5 (5 - Definite injury)
- phytotoxicity rating AMATA (Amaranthus tuberculatus [13]; 0.100 kg/ha): 1 (1 - Trace effect)
- phytotoxicity rating AMATA (Amaranthus tuberculatus [13]; 0.200 kg/ha): 1 (1 - Trace effect)
- phytotoxicity rating AMATA (Amaranthus tuberculatus [13]; 0.400 kg/ha): 4 (4 - Injury)
- phytotoxicity rating GALAP (Galium aparine [14]; 0.100 kg/ha): 0 (0 - No effect)
- phytotoxicity rating GALAP (Galium aparine [14]; 0.200 kg/ha): 0 (0 - No effect)
- phytotoxicity rating GALAP (Galium aparine [14]; 0.400 kg/ha): 2 (2 - Slight effect)
- phytotoxicity rating ALOMY (Alopecurus myosuroides [15]; 0.100 kg/ha): 4 (4 - Injury)
- phytotoxicity rating ALOMY (Alopecurus myosuroides [15]; 0.200 kg/ha): 8 (8 - Approaching complete kill)
- phytotoxicity rating ALOMY (Alopecurus myosuroides [15]; 0.400 kg/ha): 8 (8 - Approaching complete kill)
- phytotoxicity rating APESV (Apera spica venti [16]; 0.100 kg/ha): 2 (2 - Slight effect)
- phytotoxicity rating APESV (Apera spica venti [16]; 0.200 kg/ha): 8 (8 - Approaching complete kill)
- phytotoxicity rating APESV (Apera spica venti [16]; 0.400 kg/ha): 8 (8 - Approaching complete kill)
- phytotoxicity rating ECHCG (Echinochloa crus-galli [17]; 0.100 kg/ha): 3 (3 - Moderate effect)
- phytotoxicity rating ECHCG (Echinochloa crus-galli [17]; 0.200 kg/ha): 6 (6 - Herbicidal effect)
- phytotoxicity rating ECHCG (Echinochloa crus-galli [17]; 0.400 kg/ha): 6 (6 - Herbicidal effect)
- phytotoxicity rating SETVI (Setaria viridis [18]; 0.100 kg/ha): 3 (3 - Moderate effect)
- phytotoxicity rating SETVI (Setaria viridis [18]; 0.200 kg/ha): 5 (5 - Definite injury)
- phytotoxicity rating SETVI (Setaria viridis [18]; 0.400 kg/ha): 5 (5 - Definite injury)
- phytotoxicity rating LOLPE (Lolium perenne [19]; 0.100 kg/ha): 5 (5 - Definite injury)
- phytotoxicity rating LOLPE (Lolium perenne [19]; 0.200 kg/ha): 7 (7 - Good herbicidal effect)
- phytotoxicity rating LOLPE (Lolium perenne [19]; 0.400 kg/ha): 8 (8 - Approaching complete kill)
- phytotoxicity rating TRZAW (Triticum aestivum [20]; 0.100 kg/ha): 0 (0 - No effect)
- phytotoxicity rating TRZAW (Triticum aestivum [20]; 0.200 kg/ha): 1 (1 - Trace effect)
- phytotoxicity rating TRZAW (Triticum aestivum [20]; 0.400 kg/ha): 3 (3 - Moderate effect)
- phytotoxicity rating HORVW (Hordeum vulgare [21]; 0.100 kg/ha): 0 (0 - No effect)
- phytotoxicity rating HORVW (Hordeum vulgare [21]; 0.200 kg/ha): 1 (1 - Trace effect)
- phytotoxicity rating HORVW (Hordeum vulgare [21]; 0.400 kg/ha): 2 (2 - Slight effect)
- phytotoxicity rating ZEAMX (Zea mays [22]; 0.100 kg/ha): 0 (0 - No effect)
- phytotoxicity rating ZEAMX (Zea mays [22]; 0.200 kg/ha): 0 (0 - No effect)
- phytotoxicity rating ZEAMX (Zea mays [22]; 0.400 kg/ha): 0 (0 - No effect)
- phytotoxicity rating GLXMA (Glycine max [23]; 0.100 kg/ha): 2 (2 - Slight effect)
- phytotoxicity rating GLXMA (Glycine max [23]; 0.200 kg/ha): 4 (4 - Injury)
- phytotoxicity rating GLXMA (Glycine max [23]; 0.400 kg/ha): 6 (6 - Herbicidal effect)
- phytotoxicity rating ORYSA (Oryza sativum [24]; 0.100 kg/ha): 0 (0 - No effect)
- phytotoxicity rating ORYSA (Oryza sativum [24]; 0.200 kg/ha): 1 (1 - Trace effect)
- phytotoxicity rating ORYSA (Oryza sativum [24]; 0.400 kg/ha): 1 (1 - Trace effect)
